Where two headings read alike, the source gives them in different places.
Key:
[1] = system: HBV (HepG2.117 cell line, inducibly HBV producing); experiment: Anti-HBV activity: intracellular HBV DNA by real-time PCR in HepG2.117 cells after 3 days of treatment; type: cell-based, hepatitis B virus
In short: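 First, HBV replication is induced in HepG2.117 cells by doxycycline absence. Next, serially diluted compound is added for 3 days. Finally, intracellular HBV DNA is quantified by HBV-specific real-time PCR.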

in vitro = type: cell-based; conditions: human, HepG2 or HepG2.117 cells, ATPlite, mean value; for CC50 at 4 days: 4-days incubation (values marked with *)
In short: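 Luminescent ATP quantitation served as the viability endpoint following a 3- or 4-day incubation with test compounds.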

[2] = Hepatitis B virus, HepG2.117, 72 h, HepG2.117 cells, 3 days of treatment, intracellular HBV DNA by real-time PCR; mean value; read-out: EC50 (μM, mean value)
[3] = Hepatitis B virus, HepG2.117, 72 h, HepG2.117 cells, intracellular HBV DNA by real-time PCR, 3 days of treatment, mean value; read-out: EC50 (μM, mean value)
[4] = 3-days incubation (not marked with *)
[5] = 3-days incubation (unmarked values)

Row | Structure (SMILES) | EC50 [1, 2] | CC50 at 4 days (in vitro) | EC50 [1, 3] | CC50 at 3 days (in vitro; [4]) | CC50 at 3 days (in vitro; [5])
1 | COc1ccccc1-n1c(NCc2ccncc2)nc2c(c1=O)CCN(C(=O)c1ccc(Cl)c(Cl)c1)C2 [Compound C5, 7-(3,4-dichlorobenzoyl)-3-(2-methoxyphenyl)-2-{[(Pyridin-4-yl)methyl]amino}-5,6,7,8-tetrahydropyrido[3,4-d]pyrimidin-4(3H)-one] | 5.35 µM | > 50 µM |  |  | 
2 | CNC(=O)c1cc(-n2c(N[C@@H](C)c3ccc(C(F)(F)F)cc3)nc3c(c2=O)C[C@@H](C)N(C(=O)c2ccc(Cl)c(Cl)c2)C3)[nH]n1 [Compound C630] |  |  | 0.11 µM | 20.7 µM | 
3 | CNC(=O)[C@H]1CC[C@@H](n2c(NC(C)C)nc3c(c2=O)C[C@@H](C)N(C(=O)c2ccc(Cl)c(Cl)c2)C3)CC1 [Compound C280, cis-4-[(6R)-7-(3,4-dichlorobenzoyl)-6-methyl-4-oxo-2-[(propan-2-yl)amino]-5,6,7,8-tetrahydropyrido[3,4-d]pyrimidin-3(4H)-yl]-N-methylcyclohexane-1-carboxamide] | 0.1 µM |  |  |  | 24.6 µM
4 | C#C[C@H]1CCCN1c1nc2c(c(=O)n1-c1ccc(C(=O)NC)cc1)C[C@@H](C)N(C(=O)c1ccc(Cl)c(Cl)c1)C2 (single isomer, unassigned) [Compound C350, 4-[(6R)-7-(3,4-dichlorobenzoyl)-2-[(2*R)-2-ethynylpyrrolidin-1-yl]-6-methyl-4-oxo-5,6,7,8-tetrahydropyrido[3,4-d]pyrimidin-3(4H)-yl]-N-methylbenzamide] | 0.23 µM |  |  |  | > 50 µM
5 | CC(C)Nc1nc2c(c(=O)n1-c1ccc(-c3nnc[nH]3)cc1)C[C@@H](C)N(C(=O)c1ccc(Cl)c(Cl)c1)C2 [Compound C610] |  |  | 0.17 µM | > 50 µM | 
6 | CCOC(=O)c1ccc(-n2c(NCc3ccc(OC)cc3)nc3c(c2=O)CCN(C(=O)c2ccc(Cl)c(Cl)c2)C3)cc1 [Compound C121, ethyl 4-[7-(3,4-dichlorobenzoyl)-2-{[(4-methoxyphenyl)methyl]amino}-4-oxo-5,6,7,8-tetrahydropyrido[3,4-d]pyrimidin-3(4H)-yl]benzoate] | 1.55 µM |  |  |  | > 50 µM
7 | CNC1CCN(c2ccc(-n3c(NC(C)C)nc4c(c3=O)CCN(C(=O)c3ccc(Cl)c(Cl)c3)C4)cc2)C1 (stereo not shown) [Compound C180, 7-(3,4-dichlorobenzoyl)-3-{4-[3-(methylamino)pyrrolidin-1-yl]phenyl}-2-[(propan-2-yl)amino]-5,6,7,8-tetrahydropyrido[3,4-d]pyrimidin-4(3H)-one] | 0.72 µM |  |  |  | 5.6 µM
8 | CNC(=O)c1ccc(-n2c(NC(C)C)nc3c(c2=O)C[C@@H](C)N(C(=O)c2cc4ccc(Br)c(F)c4[nH]2)C3)cc1 [Compound C568] |  |  | 0.02 µM | 25.8 µM | 
9 | CNC(=O)c1ccc(-n2c(NC(C)C)nc3c(c2=O)C[C@@H](C)N(C(=O)c2cc4cc(Br)ccc4s2)C3)cc1 [Compound C583] |  |  | 0.21 µM | > 50 µM | 
10 | COc1ccccc1-n1c(NC(C)c2ccncc2)nc2c(c1=O)CCN(C(=O)c1ccc(Cl)c(Cl)c1)C2 (stereo not shown) [Compound C56, 7-(3,4-dichlorobenzoyl)-3-(2-methoxyphenyl)-2-{[1-(pyridin-4-yl)ethyl]amino}-5,6,7,8-tetrahydropyrido[3,4-d]pyrimidin-4(3H)-one] | 1.93 µM |  |  |  | > 50 µM
11 | CNC(=O)c1ccc(-n2c(NC(C)C)nc3c(c2=O)C[C@@H](C)N(C(=O)c2ccc(F)c(C)c2)C3)cc1 [Compound C499] |  |  | 1.53 µM | > 50 µM | 
12 | CC(C)Nc1nc2c(c(=O)n1-c1ccc(S(C)(=O)=O)cc1)C[C@H](c1ccc(F)cc1)N(C(=O)c1ccc(Cl)c(Cl)c1)C2 (single isomer, unassigned) [Compound C110B, (6*R)-7-(3,4-dichlorobenzoyl)-6-(4-fluorophenyl)-3-[4-(methanesulfonyl)phenyl]-2-[(propan-2-yl)amino]-5,6,7,8-tetrahydropyrido[3,4-d]pyrimidin-4(3H)-one] | 6.38 µM |  |  |  | > 50 µM
13 | COc1ccccc1-n1c(NC(C)C)nc2c(c1=O)CCN(C(=O)c1ccc(Cl)c(Cl)c1)C2 [Compound C24, 7-(3,4-dichlorobenzoyl)-3-(2-methoxyphenyl)-2-[(propan-2-yl)amino]-5,6,7,8-tetrahydropyrido[3,4-d]pyrimidin-4(3H)-one] | 2.25 µM | > 50 µM |  |  | 
14 | CC(C)Nc1nc2c(c(=O)n1-c1ccc(C(=O)N3CCOCC3)cc1)C[C@@H](C)N(C(=O)c1ccc(Cl)c(Cl)c1)C2 [Compound C168, (6R)-7-(3,4-dichlorobenzoyl)-6-methyl-3-[4-(morpholine-4-carbonyl)phenyl]-2-[(propan-2-yl)amino]-5,6,7,8-tetrahydropyrido[3,4-d]pyrimidin-4(3H)-one] | 0.24 µM |  |  |  | > 50 µM
15 | COc1ccc(CNc2nc3c(c(=O)n2C2CCN(S(C)(=O)=O)CC2)CCN(C(=O)c2ccc(Cl)c(Cl)c2)C3)cc1 [Compound C66, 7-(3,4-dichlorobenzoyl)-3-[1-(methanesulfonyl)piperidin-4-yl]-2-{[(4-methoxyphenyl)methyl]amino}-5,6,7,8-tetrahydropyrido[3,4-d]pyrimidin-4(3H)-one] | 0.77 µM |  |  |  | > 50 µM
16 | O=C(c1ccc(Cl)c(Cl)c1)N1CCc2c(nc(NC(CO)CO)[nH]c2=O)C1 [Compound C98, 7-(3,4-dichlorobenzoyl)-2-[(1,3-dihydroxypropan-2-yl)amino]-5,6,7,8-tetrahydropyrido[3,4-d]pyrimidin-4(3H)-one] | 36.5 µM |  |  |  | > 50 µM

Row | Structure (SMILES) | EC50 [1, 2] | CC50 at 4 days (in vitro) | EC50 [1, 3] | CC50 at 3 days (in vitro; [4]) | CC50 at 3 days (in vitro; [5])
17 | CNC(=O)c1ccc(-n2c(NC3CCC34CCC4)nc3c(c2=O)C[C@@H](C)N(C(=O)c2ccc(Cl)c(Cl)c2)C3)cc1 (stereo partly drawn) [Compound C347, 4-[(6R)-7-(3,4-dichlorobenzoyl)-6-methyl-4-oxo-2-[(spiro[3.3]heptan-1-yl)amino]-5,6,7,8-tetrahydropyrido[3,4-d]pyrimidin-3(4H)-yl]-N-methylbenzamide] | 0.27 µM |  |  |  | 24.2 µM
18 | CNC(=O)c1ccc(-n2c(N[C@@H](C)c3ccccc3OC)nc3c(c2=O)C[C@@H](C)N(C(=O)c2ccc(Cl)c(Cl)c2)C3)cc1 (single isomer, unassigned) [Compound C402b] |  |  | 0.08 µM | 18.8 µM | 
19 | CCN(Cc1ccc2c(c1)OCO2)c1nc2c(c(=O)n1-c1ccc(C(=O)NC)cc1)C[C@@H](C)N(C(=O)c1ccc(Cl)c(Cl)c1)C2 [Compound C605] |  |  | 0.15 µM | > 50 µM | 
20 | CNC(=O)c1ccc(-n2c(N[C@H]3CCC34CCC4)nc3c(c2=O)C[C@@H](C)N(C(=O)c2ccc(Cl)c(Cl)c2)C3)cc1 (single isomer, unassigned) [Compound C346b] |  |  | 0.22 µM | > 50 µM | 
21 | CNC(=O)c1ccc(-n2c(NC(C)C)nc3c(c2=O)C[C@@H](C)N(C(=O)c2cc4ccc(OC)cc4s2)C3)cc1 [Compound C524] |  |  | 1.36 µM | > 50 µM | 
22 | CNC(=O)c1ccc(-n2c(N[C@H](C)c3nccs3)nc3c(c2=O)C[C@@H](C)N(C(=O)c2ccc(Cl)c(Cl)c2)C3)cc1 (single isomer, unassigned) [Compound C434a] |  |  | 0.99 µM | > 50 µM | 
23 | CNC(=O)c1ccc(-n2c(N[C@@H](C)c3ccc(OC)c(F)c3)nc3c(c2=O)C[C@@H](C)N(C(=O)c2ccc(Cl)c(Cl)c2)C3)cc1 (single isomer, unassigned) [Compound C416b] |  |  | 0.06 µM | 34.5 µM | 
24 | CNC(=O)c1ccc(-n2c(NC(C)C)nc3c(c2=O)C[C@@H](C)N(C(=O)c2ccc(Cl)c(C(F)F)c2)C3)cc1 [Compound C427] |  |  | 0.05 µM | > 50 µM | 
25 | CNC(=O)c1ccc(-n2c(NC(C)C)nc3c(c2=O)C[C@@H](C)N(C(=O)c2cccc(Cl)c2OC)C3)cc1 [Compound C504] |  |  | 1.01 µM | > 50 µM | 
26 | CNC(=O)c1ccc(-n2c(NC3COC(C4CC4)C3)nc3c(c2=O)C[C@@H](C)N(C(=O)c2ccc(Cl)c(Cl)c2)C3)cc1 (stereo partly shown) [Compound C549] |  |  | 1.22 µM | > 50 µM | 
27 | CNC(=O)c1ccc(-n2c(N[C@@H](CC3CC3)c3ccccc3)nc3c(c2=O)C[C@@H](C)N(C(=O)c2ccc(Cl)c(Cl)c2)C3)cc1 (single isomer, unassigned) [Compound C437b] |  |  | 0.91 µM | 29.4 µM | 
28 | CNC(=O)c1ccc(-n2c(NCc3nnn(C)c3C(F)(F)F)nc3c(c2=O)C[C@@H](C)N(C(=O)c2ccc(Cl)c(Cl)c2)C3)cc1 [Compound C539] |  |  | 5.47 µM | > 50 µM | 
29 | CNC(=O)c1ccc(-n2c(NC(C)C)nc3c(c2=O)C[C@@H](C)N(C(=O)c2ccc4nnn(C)c4c2)C3)cc1 [Compound C474] |  |  | > 25 µM | > 50 µM | 
30 | CNC(=O)c1ccc(-n2c(NC(C)C)nc3c(c2=O)C[C@@H](C)N(C(=O)c2cc4c(Br)cccc4[nH]2)C3)cc1 [Compound C569] |  |  | 0.01 µM | 21.4 µM | 
31 | CNC(=O)c1ccc(-n2c(NC(C)C)nc3c(c2=O)C[C@@H](C)N(C(=O)c2ccc(Cl)c(C(F)F)c2)C3)c(Cl)c1 (single isomer, unassigned) [Compound C685a] |  |  | 0.03 µM | > 50 µM | 
32 | CC(C)Nc1nc2c(c(=O)n1-c1ccc(S(C)(=O)=O)cc1)CCN(C(=O)C1Cc3ccccc3N1)C2 (stereo not shown) [Compound C184, 7-(2,3-dihydro-1H-indole-2-carbonyl)-3-[4-(methanesulfonyl)phenyl]-2-[(propan-2-yl)amino]-5,6,7,8-tetrahydropyrido[3,4-d]pyrimidin-4(3H)-one] | 0.71 µM |  |  |  | > 50 µM
